Reference: US11566007B2, “Ras inhibitors” (Revolution Medicines, Inc., priority 2019, dated 2023)

Key:
[1] = test system: NCI-H358 cells (K-Ras G12C); assay: Potency assay: pERK in NCI-H358 cells; type: cell-based, human; conditions: Homo sapiens, NCI-H358; H358 KRAS G12C; read-out: pERK EC50
Method in brief: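 pERK decrease read by AlphaLISA SureFire p-ERK1/2 or In-Cell Western after 4 h compound exposure at 37 °C, 5% CO2.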

KRAS G13D = KRAS G13D (Homo sapiens (Human), UniProt P01116+P62937, G13D); assay: Ras-Raf (BRAF RBD) disruption / FRET / MOA assay, KRAS G13D; type: biochemical; conditions: read-out: IC50* KRAS G13D FRET data
Chain of KRAS G13D (P01116-2 other isoform, or with tags, fused parts or gaps G13D): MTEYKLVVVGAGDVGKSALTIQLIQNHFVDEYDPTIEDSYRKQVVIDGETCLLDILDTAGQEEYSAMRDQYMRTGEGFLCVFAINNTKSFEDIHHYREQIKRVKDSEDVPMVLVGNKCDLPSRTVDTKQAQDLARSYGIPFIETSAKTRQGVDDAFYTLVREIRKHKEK
Chain of KRAS G13D (P62937 whole entry): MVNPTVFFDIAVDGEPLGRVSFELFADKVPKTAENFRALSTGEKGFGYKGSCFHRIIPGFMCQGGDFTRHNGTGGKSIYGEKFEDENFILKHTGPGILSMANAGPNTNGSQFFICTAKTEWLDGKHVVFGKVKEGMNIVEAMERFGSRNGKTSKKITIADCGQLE
Method in brief: (§1)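 A 10-point, 3-fold dilution series topping at 30 μM final was incubated 3 h at 25° C with the Ras/cyclophilin A/BRAF RBD mixture.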

NCI-H358 (K-Ras G12C) = assay: CellTiter-Glo cell viability assay, NCI-H358; type: cell-based, human; conditions: Homo sapiens, NCI-H358, 120 h, NCI-H358, 5-day treatment; class symbols; read-out: Additional H358 Cell Viability assay data (K-Ras G12C, IC50)
Method in brief: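 Compounds dispensed directly onto seeded K-Ras mutant cells; plates read on day 5 after ~30 min equilibration to room temperature, by CellTiter-Glo luminescence. Signal normalized as (sample/mean DMSO)×100, then fitted to a four-parameter logistic curve.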

NRAS G12C = NRAS G12C (Homo sapiens (Human), UniProt P01111+P62937, G12C); assay: Ras-Raf (BRAF RBD) disruption / FRET / MOA assay, NRAS G12C; type: biochemical; conditions: read-out: IC50* NRAS G12C FRET data
Chain of NRAS G12C (P01111 whole entry G12C): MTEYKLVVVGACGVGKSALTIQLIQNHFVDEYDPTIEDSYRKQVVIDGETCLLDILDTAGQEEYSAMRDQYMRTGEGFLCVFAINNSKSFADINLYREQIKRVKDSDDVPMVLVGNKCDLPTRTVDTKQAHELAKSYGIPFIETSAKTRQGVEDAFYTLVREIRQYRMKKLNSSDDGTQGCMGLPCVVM
Chain of NRAS G12C (P62937 whole entry): as the sequence (P62937 whole entry) above
Method in brief: as §1

K-Ras G13C = K-Ras G13C (Homo sapiens (Human), UniProt P01116+P62937, G13C); assay: Ras-Raf (BRAF RBD) disruption / FRET / MOA assay, KRAS G13C; type: biochemical; conditions: KRAS G13C; Ras-Raf disruption/FRET/MOA assay; read-out: IC50* KRAS G13C FRET data
Chain of K-Ras G13C (P01116-2 other isoform, or with tags, fused parts or gaps G13C): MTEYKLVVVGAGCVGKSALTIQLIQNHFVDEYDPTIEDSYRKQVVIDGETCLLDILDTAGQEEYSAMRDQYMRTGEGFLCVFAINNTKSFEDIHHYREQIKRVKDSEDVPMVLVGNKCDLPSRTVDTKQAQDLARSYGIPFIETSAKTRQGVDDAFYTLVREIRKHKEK
Chain of K-Ras G13C (P62937 whole entry): as the sequence (P62937 whole entry) above
Method in brief: as §1

K-Ras G12C = K-Ras G12C (Homo sapiens (Human), UniProt P01116+P62937, G12C); assay: Ras-Raf (BRAF RBD) disruption / FRET / MOA assay, KRAS G12C; type: biochemical; conditions: KRAS G12C; Ras-Raf disruption/FRET/MOA assay; read-out: IC50* KRAS G12C FRET data
Chain of K-Ras G12C (P01116-2 other isoform, or with tags, fused parts or gaps G12C): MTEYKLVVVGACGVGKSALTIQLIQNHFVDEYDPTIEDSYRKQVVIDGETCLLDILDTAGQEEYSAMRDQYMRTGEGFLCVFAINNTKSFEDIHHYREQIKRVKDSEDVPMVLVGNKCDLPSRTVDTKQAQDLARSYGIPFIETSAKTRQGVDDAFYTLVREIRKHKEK
Chain of K-Ras G12C (P62937 whole entry): as the sequence (P62937 whole entry) above
Method in brief: as §1

KRAS G12D = KRAS G12D (Homo sapiens (Human), UniProt P01116+P62937, G12D); assay: Ras-Raf (BRAF RBD) disruption / FRET / MOA assay, KRAS G12D; type: biochemical; conditions: Ras-Raf disruption/FRET/MOA assay; class symbols; read-out: KRAS G12D FRET data IC50
Chain of KRAS G12D (P01116-2 other isoform, or with tags, fused parts or gaps G12D): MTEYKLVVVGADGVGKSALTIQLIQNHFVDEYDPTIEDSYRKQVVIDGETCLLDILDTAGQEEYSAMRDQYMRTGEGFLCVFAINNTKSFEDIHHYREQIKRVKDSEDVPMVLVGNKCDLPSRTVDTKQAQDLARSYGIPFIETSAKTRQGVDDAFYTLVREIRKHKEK
Chain of KRAS G12D (P62937 whole entry): as the sequence (P62937 whole entry) above
Method in brief: as §1

KRAS G12S = KRAS G12S (Homo sapiens (Human), UniProt P01116+P62937, G12S); assay: Ras-Raf (BRAF RBD) disruption / FRET / MOA assay, KRAS G12S; type: biochemical; conditions: Ras-Raf disruption/FRET/MOA assay; class symbols; read-out: KRAS G12S FRET data IC50
Chain of KRAS G12S (P01116-2 other isoform, or with tags, fused parts or gaps G12S): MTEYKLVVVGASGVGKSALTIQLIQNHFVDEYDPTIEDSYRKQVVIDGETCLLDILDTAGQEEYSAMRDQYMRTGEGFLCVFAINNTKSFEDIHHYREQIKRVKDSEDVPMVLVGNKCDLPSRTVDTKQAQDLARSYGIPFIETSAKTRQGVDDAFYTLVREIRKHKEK
Chain of KRAS G12S (P62937 whole entry): as the sequence (P62937 whole entry) above
Method in brief: as §1

KRAS G12V = KRAS G12V (Homo sapiens (Human), UniProt P01116+P62937, G12V); assay: Ras-Raf (BRAF RBD) disruption / FRET / MOA assay, KRAS G12V; type: biochemical; conditions: read-out: IC50* KRAS G12V FRET data
Chain of KRAS G12V (P01116-2 other isoform, or with tags, fused parts or gaps G12V): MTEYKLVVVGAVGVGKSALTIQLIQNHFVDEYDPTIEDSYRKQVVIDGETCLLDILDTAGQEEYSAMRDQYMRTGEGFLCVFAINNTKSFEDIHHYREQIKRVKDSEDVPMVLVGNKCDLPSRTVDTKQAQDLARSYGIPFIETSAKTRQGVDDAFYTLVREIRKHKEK
Chain of KRAS G12V (P62937 whole entry): as the sequence (P62937 whole entry) above
Method in brief: as §1

KRAS WT = KRAS WT (Homo sapiens (Human), UniProt P01116+P62937); assay: Ras-Raf (BRAF RBD) disruption / FRET / MOA assay, KRAS WT; type: biochemical; conditions: read-out: IC50* KRAS WT FRET data
Chain of KRAS WT (P01116-2 other isoform, or with tags, fused parts or gaps): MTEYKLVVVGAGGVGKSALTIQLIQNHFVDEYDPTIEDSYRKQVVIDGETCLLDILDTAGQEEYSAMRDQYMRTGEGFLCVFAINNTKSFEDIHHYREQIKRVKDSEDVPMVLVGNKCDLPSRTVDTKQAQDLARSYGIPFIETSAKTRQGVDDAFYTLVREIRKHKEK
Chain of KRAS WT (P62937 whole entry): as the sequence (P62937 whole entry) above
Method in brief: as §1

SMILES	EC50 [1] [nM]	IC50 (KRAS G13D) [nM]	IC50 (NCI-H358 (K-Ras G12C)) [nM]	IC50 (NRAS G12C) [nM]	IC50 (K-Ras G13C) [nM]	IC50 (K-Ras G12C) [nM]	IC50 (KRAS G12D) [nM]	IC50 (KRAS G12S) [nM]	IC50 (KRAS G12V) [nM]	IC50 (KRAS WT) [nM]
CC#CC(=O)N1C[C@H](C)[C@H](C(=O)N(C)[C@H](C(=O)N[C@H]2Cc3cccc(c3)-c3ccc4c(c3)c(c(-c3cccnc3[C@H](C)OC)n4CC)CC(C)(C)COC(=O)[C@@H]3CCCN(N3)C2=O)C(C)C)C1 (atropisomer, axis not shown) [Example A413]	< 5000	1000 to 10000	10 to 100	100 to 1000	1000 to 10000	100 to 1000	> 10000	1000 to 10000	1000 to 10000	1000 to 10000
CCn1c(-c2cccnc2[C@H](C)OC)c2c3cc(ccc31)-c1cccc(c1)C[C@H](NC(=O)[C@H](C(C)C)N1CC[C@@]3(CCN(C(=O)C#CC(C)(C)N(C)C)C3)C1=O)C(=O)N1CCC[C@H](N1)C(=O)OCC(C)(C)C2 (atropisomer, axis not shown) [Example A414]	< 5000	> 10000	< 10	< 10	1000 to 10000	< 10	> 10000	1000 to 10000	1000 to 10000	> 10000
C=CC(=O)N1CCC12CCN(C(=O)N(C)[C@H](C(=O)N[C@H]1Cc3nc(cs3)-c3ccc4c(c3)c(c(-c3cccnc3[C@H](C)OC)n4CC)CC(C)(C)COC(=O)[C@@H]3CCCN(N3)C1=O)C(C)C)CC2 (atropisomer, axis not shown) [Example A415]	< 5000	100 to 1000	10 to 100	100 to 1000	100 to 1000	100 to 1000	1000 to 10000	100 to 1000	100 to 1000	100 to 1000
C=CC(=O)N1C[C@@H](C)N(C(=O)N(C)[C@H](C(=O)N[C@H]2Cc3nc(cs3)-c3ccc4c(c3)c(c(-c3cccnc3[C@H](C)OC)n4CC)CC(C)(C)COC(=O)[C@@H]3CCCN(N3)C2=O)C(C)C)C[C@@H]1C (atropisomer, axis not shown) [Example A418]	< 5000	100 to 1000	10 to 100	10 to 100	10 to 100	10 to 100	100 to 1000	10 to 100	10 to 100	10 to 100
C=CC(=O)N1CC2(C1)CN(C(=O)N(C)[C@H](C(=O)N[C@H]1Cc3nc(cs3)-c3ccc4c(c3)c(c(-c3cccnc3[C@H](C)OC)n4CC)CC(C)(C)COC(=O)[C@@H]3CCCN(N3)C1=O)C(C)C)C2 (atropisomer, axis not shown) [Example A419]	< 5000	1000 to 10000	< 10	10 to 100	100 to 1000	100 to 1000	1000 to 10000	100 to 1000	100 to 1000	100 to 1000
C=CC(=O)N1CCN(C(=O)N(C)[C@H](C(=O)N[C@H]2Cc3nc(cs3)-c3ccc4c(c3)c(c(-c3cccnc3[C@H](C)OC)n4CC)CC(C)(C)COC(=O)[C@@H]3CCCN(N3)C2=O)C(C)C)[C@@H](C)C1 (atropisomer, axis not shown) [Example A421]	< 5000	100 to 1000	10 to 100	10 to 100	10 to 100	10 to 100	1000 to 10000	100 to 1000	100 to 1000	100 to 1000
C=CC(=O)NC[C@@H]1CCN1C(=O)N(C)[C@H](C(=O)N[C@H]1Cc2nc(cs2)-c2ccc3c(c2)c(c(-c2cccnc2[C@H](C)OC)n3CC)CC(C)(C)COC(=O)[C@@H]2CCCN(N2)C1=O)C(C)C (atropisomer, axis not shown) [Example A422]	< 5000	1000 to 10000	10 to 100	100 to 1000	100 to 1000	100 to 1000	1000 to 10000	1000 to 10000	1000 to 10000	1000 to 10000
CC#CC(=O)N1CC[C@@]2(CCN([C@H](C(=O)N[C@H]3Cc4cccc(c4)-c4ccc5c(c4)c(c(-c4cccnc4[C@H](C)OC)n5CC)CC(C)(C)COC(=O)[C@@H]4CCCN(N4)C3=O)C(C)C)C2=O)C1 (atropisomer, axis not shown) [Example A426]	< 5000	> 10000	10 to 100	1000 to 10000	1000 to 10000	100 to 1000	> 10000	1000 to 10000	1000 to 10000	1000 to 10000
C=CC(=O)N1C[C@H](C)N(C(=O)N(C)[C@H](C(=O)N[C@H]2Cc3nc(cs3)-c3ccc4c(c3)c(c(-c3cccnc3[C@H](C)OC)n4CC)CC(C)(C)COC(=O)[C@@H]3CCCN(N3)C2=O)C(C)C)C[C@H]1C (atropisomer, axis not shown) [Example A430]	< 5000	1000 to 10000	10 to 100	100 to 1000	100 to 1000	100 to 1000	1000 to 10000	100 to 1000	1000 to 10000	100 to 1000
C=CC(=O)N1CC2(C1)CN(C(=O)N(C)[C@H](C(=O)N[C@H]1Cc3nc(cs3)-c3ccc4c(c3)c(c(-c3cccnc3[C@H](C)OC)n4CC)CC(C)(C)COC(=O)[C@@H]3CCCN(N3)C1=O)C(C)C)CCO2 (atropisomer, axis not shown) [Example A431]	< 5000	1000 to 10000	10 to 100	100 to 1000	100 to 1000	100 to 1000	1000 to 10000	100 to 1000	100 to 1000	100 to 1000
C=CC(=O)N1CCN(C(=O)N(C)[C@H](C(=O)N[C@H]2Cc3nc(cs3)-c3ccc4c(c3)c(c(-c3cccnc3[C@H](C)OC)n4CC)CC(C)(C)COC(=O)[C@@H]3CCCN(N3)C2=O)C(C)C)C[C@H]1C (atropisomer, axis not shown) [Example A432]	< 5000	100 to 1000	10 to 100	10 to 100	10 to 100	10 to 100	100 to 1000	100 to 1000	100 to 1000	10 to 100
C=CC(=O)N1CCN(C(=O)N(C)[C@H](C(=O)N[C@H]2Cc3nc(cs3)-c3ccc4c(c3)c(c(-c3cccnc3[C@H](C)OC)n4CC)CC(C)(C)COC(=O)[C@@H]3CCCN(N3)C2=O)C(C)C)C[C@@H]1C (atropisomer, axis not shown) [Example A433]	< 5000	100 to 1000	10 to 100	10 to 100	10 to 100	10 to 100	100 to 1000	10 to 100	100 to 1000	10 to 100
